Values quoted from earlier work, collected in patent publication US9017727B2, “Amino acid composition with improved dispersibility” (N.V. Nutricia, priority 2009, dated 2015).

conditions: in water at 20 degrees Celsius

Compound	Solubility (at 20° C.) (g/100 ml)
N[C@@H](CS)C(=O)O [Cysteine]	16 g/100 ml
N[C@@H](CSSC[C@H](N)C(=O)O)C(=O)O [Cystine]	0.009 g/100 ml
NC(=O)CC[C@H](N)C(=O)O [Glutamine]	3.73 g/100 ml
N[C@@H](Cc1c[nH]cn1)C(=O)O [Histidine]	3.84 g/100 ml
CC[C@H](C)[C@H](N)C(=O)O [Isoleucine]	4.02 g/100 ml
C[C@H](N)C(=O)O [L-Alanine]	15.8 g/100 ml
CC(C)C[C@H](N)C(=O)O [Leucine]	2.38 g/100 ml
CSCC[C@H](N)C(=O)O [Methionine]	4.8 g/100 ml
CC(=O)N[C@@H](CS)C(=O)O [N-acetyl cysteine]	17 g/100 ml
N[C@@H](Cc1ccccc1)C(=O)O [Phenylalanine]	2.74 g/100 ml
N[C@@H](Cc1c[nH]c2ccccc12)C(=O)O [Tryptophan]	1.06 g/100 ml
CC(C)[C@H](N)C(=O)O [Valine]	5.75 g/100 ml
Cysteine HCL-anhydrous	102 g/100 ml
